Read-outs that look alike come from different tables or passages of the source.
Experiments:
[1] = system: patients with advanced cancer; assay: FAACT Anorexia/Cachexia subscale, Example 1 study; type: in vivo, human; conditions: Day 86 (N = 8), change from baseline, 100 mg oral daily + physical activity + nutritional counseling
Protocol: (§1) In this single arm study, 38 patients were intended for treatment with anamorelin for 6 weeks with an optional extension phase of 6 more weeks based on tolerability and safety and patient willingness. Patients received anamorelin 100 mg tablets and physical activity for 6 weeks for the intervention phase. Patients took 1 tablet orally while fasting (at least 1 hour before a meal).
(§2) Secondary objectives of the study were to examine the effects of anamorelin and standardized physical activity and nutritional counseling on Health-related quality of life and patient reported outcomes as measured by The Multidimensional Fatigue Symptom Inventory-Short Form[MFSI-SF], PROMIS-Fatigue, Hospital Anxiety Depression Scale (HADS), Edmonton Symptom Assessment Scale (ESAS), Functional Assessment of Cancer Therapy (FACT-G), and its Functional Assessment of Anorexia/Cachexia Treatment (FAACT) subscale in these patients.
The FAACT-Anorexia/Cachexia subscale is a 12-item symptom-specific subscale designed to measure patients' additional concerns about their anorexia/cachexia during the previous 7 days. The FAACT has internal consistency and a reliability coefficient (Cronbach's alpha) of 0.88 for the 12 components (Ribaudo, Cella et al. 2000). Patients rate the intensity of anorexia/cachexia and its related symptoms on a 0-4 scale like that used in the FACIT-F.

[2] = system: patients with advanced cancer; assay: PROMIS-Fatigue, Example 1 study; type: in vivo, human; conditions: change from baseline, 100 mg oral daily + physical activity + nutritional counseling
Protocol: as §1, §2
PROMIS measures key symptoms and health concepts applicable to advanced cancer, enabling efficient and interpretable clinical trial research and clinical practice application of patient-reported outcomes (PROs) (Rothrock, Hays et al. 2010, Yost, Eton et al. 2011).

[3] = system: cachectic patients with non-small cell lung cancer; conditions: cited from earlier work
[4] = system: patients with advanced cancer; assay: Multidimensional Fatigue Symptom Inventory-Short Form (MFSI-SF), Example 1 study; type: in vivo, human; conditions: change from baseline, 100 mg oral daily + physical activity + nutritional counseling
Protocol: as §1, §2
MFSI-SF consists of 30 items designed to assess the multidimensional nature of fatigue(Stein, Jacobsen et al. 2004). Ratings are summed to obtain scores for 5 subscales (general fatigue, physical fatigue, emotional fatigue, mental fatigue, and vigor).

[5] = system: patients with advanced cancer; assay: Godin Leisure-Time physical activity questionnaire, Example 1 study; type: in vivo, human; conditions: Day 86 (N = 8), change from baseline, 100 mg oral daily + physical activity + nutritional counseling
Protocol: as §1
Measures: We used the 30 second chair stand test, six-minute walk test, and an accelerometer. A self-report exercise questionnaire, the Godin Leisure-Time physical activity questionnaire, was used to complement the objective measures. IM Systems-three dimensional accelerometers (“Biotrainer-Pro”) was used to objectively measure physical activity.
Physical Performance Tests: The 30 second chair stand test, 6-minute walk test, and Godin Leisure-Time physical activity questionnaire were administered at baseline and on Day 43. The 30 second sit-to-stand task assessed lower body strength (Rikli and Jones 1999).
The Godin Leisure-Time physical activity questionnaire asks participants how many times per week on average they participate in strenuous, moderate and mild exercises for more than 15 minutes during their free time. […]

[6] = ROMANA 1 and ROMANA 2, both studies

CN(C)N(C)C(=O)[C@@]1(Cc2ccccc2)CCCN(C(=O)[C@@H](Cc2c[nH]c3ccccc23)NC(=O)C(C)(C)N)C1 [anamorelin]
FAACT-A/CS Total, change, Mean (±SD) [1]: −5.86 (±3.72),
PROMIS-Fatigue, change, Mean (±SD) ([2]; Day 15 (N = 28)): −2.74 (±6.12),
PROMIS-Fatigue, change, Mean (±SD) ([2]; Day 29 (N = 28)): −3.64 (±8.22),
PROMIS-Fatigue, change, Mean (±SD) ([2]; Day 86 (N = 8)): −6.36 (±6.32),
Effect size for improvement in CRF ([3]; ROMANA 1): 0.16
Effect on fatigue using the FACIT-F [3, 6]: unable to detect a significant effect
Effect on strength measured by handgrip strength [3, 6]: unable to detect a significant effect
Effect size for improvement in CRF ([3]; ROMANA 2): 0.008
Treat fatigue and improve handgrip strength, pooled post-hoc analysis ([3]; higher BMIs): ineffective
Treat fatigue and improve handgrip strength, pooled post-hoc analysis ([3]; patients with BMI less than 20 kg/m^2): effective
MFSI-SF Emotional fatigue, change, Mean (±SD) ([4]; Day 15 (N = 28)): −0.43 (±2.20),
MFSI-SF General fatigue, change, Mean (±SD) ([4]; Day 15 (N = 28)): −2.25 (±4.53),
MFSI-SF Mental fatigue, change, Mean (±SD) ([4]; Day 15 (N = 28)): −0.93 (±2.57),
MFSI-SF Physical fatigue, change, Mean (±SD) ([4]; Day 15 (N = 28)): −0.71 (±3.69),
MFSI-SF Total, change, Mean (±SD) ([4]; Day 15 (N = 28)): −4.79 (±9.59),
MFSI-SF Vigor, change, Mean (±SD) ([4]; Day 15 (N = 28)): 0.46 (±2.89),
MFSI-SF Emotional fatigue, change, Mean (±SD) ([4]; Day 29 (N = 28)): 0.14 (±3.15),
MFSI-SF General fatigue, change, Mean (±SD) ([4]; Day 29 (N = 28)): −4.18 (±5.74),
MFSI-SF Mental fatigue, change, Mean (±SD) ([4]; Day 29 (N = 28)): −1.39 (±2.90),
MFSI-SF Physical fatigue, change, Mean (±SD) ([4]; Day 29 (N = 28)): −0.50 (±4.43),
MFSI-SF Total, change, Mean (±SD) ([4]; Day 29 (N = 28)): −6.32 (±12.41),
MFSI-SF Vigor, change, Mean (±SD) ([4]; Day 29 (N = 28)): 0.39 (±3.46),
MFSI-SF Emotional fatigue, change, Mean (±SD) ([4]; Day 43 (N = 28)): 1.04 (±4.36),
MFSI-SF Mental fatigue, change, Mean (±SD) ([4]; Day 43 (N = 28)): −0.36 (±4.12),
MFSI-SF Physical fatigue, change, Mean (±SD) ([4]; Day 43 (N = 28)): −0.39 (±5.03),
MFSI-SF Total, change, Mean (±SD) ([4]; Day 43 (N = 28)): −2.07 (±17.59),
MFSI-SF Vigor, change, Mean (±SD) ([4]; Day 43 (N = 28)): −1.11 (±5.28),
MFSI-SF Emotional fatigue, change, Mean (±SD) ([4]; Day 86 (N = 8)): −0.88 (±2.42),
MFSI-SF General fatigue, change, Mean (±SD) ([4]; Day 86 (N = 8)): −4.00 (±6.28),
MFSI-SF Mental fatigue, change, Mean (±SD) ([4]; Day 86 (N = 8)): −2.25 (±3.62),
MFSI-SF Physical fatigue, change, Mean (±SD) ([4]; Day 86 (N = 8)): −1.88 (±3.98),
MFSI-SF Total, change, Mean (±SD) ([4]; Day 86 (N = 8)): −11.75 (±14.22),
MFSI-SF Vigor, change, Mean (±SD) ([4]; Day 86 (N = 8)): 2.75 (±3.01),
Godin Leisure Test Total, change, Mean (±SD) [5]: −0.67 (±6.35),

Source: patent US20220401429A1, “USE OF ANAMORELIN TO TREAT CANCER-RELATED FATIGUE” (Helsinn Healthcare SA, priority 2021, published 2022)
